{"source": "patent US11369565B2", "about": "“Amino-pyrimidine skeletal muscle modulators” (Cytokinetics, Inc., priority 2010, dated 2022)", "tested_on": "rabbit skeletal myofibrils (approximately 90% fast fibers)", "test": "Activation of fast skeletal myofibrils (PUMA coupled-enzyme ATPase assay at pCa25)", "format": "biochemical", "details": "concentration at which the compound increased the enzymatic activity by 40%; calcium at pCa25; PM12 buffer pH 6.8", "how_it_was_run": "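In pH 6.8 PM12 buffer (12 mM Pipes, 2 mM MgCl2, 1 mM DTT), ADP from myosin regenerated via pyruvate kinase/lactate dehydrogenase, with absorbance change at 340 nm from NADH oxidation as read-out. Calcium set at pCa25; Triton-washed rabbit skeletal myofibrils (about 90% fast fibres) used.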"}
{"smiles": "CC(C)(Nc1ncc(-c2cc(C(N)=O)ccc2F)cn1)c1cccc(OC(F)F)n1", "note": "[3-[2-({1-[6-(difitioromethoxy)(2-pyridyl)]-isopropyl}amino)pyrimidin-5-yl]-4-fluorobenzamide]", "values": [{"measurement": "Mean AC1.4", "result": "A (A=<1 uM)"}]}
{"smiles": "CC(C)(Nc1ncc(-c2cccc(C(N)=O)c2)cn1)c1cccc(OC(F)F)n1", "note": "[3-[2-({1-[6-(difluoromethoxy)(2-pyridyl)]-isopropyl}amino)pyrimidin-5-yl]benzamide]", "values": [{"measurement": "Mean AC1.4", "result": "A (A=<1 uM)"}]}
{"smiles": "CC(C)(Nc1ncc(-c2cccc(C(N)=O)c2)cn1)c1ccccc1S(C)(=O)=O", "note": "[3-[2-({1-methyl-1-[2-(methylsulfonyl)phenyl]ethyl}amino)pyrimidin-5-yl]benzamide]", "values": [{"measurement": "Mean AC1.4", "result": "D (D=>20 uM)"}]}
{"smiles": "CC(C)(c1ncccc1S(C)(=O)=O)N(O)c1ncc(-c2cccc(C(N)=O)c2)cn1", "note": "[3-[2-({1-methyl-1-[3-(methylsulfonyl)(2-pyridyl)]ethyl}(hydroxyamino))pyrimidin-5-yl]benzamide]", "values": [{"measurement": "Mean AC1.4", "result": "D (D=>20 uM)"}]}
{"smiles": "CC(C)(Nc1ncc(-c2cccc(C(N)=O)c2)cn1)c1ncccc1S(C)(=O)=O", "note": "[3-[2-({1-methyl-1-[3-(methylsulfonyl)(2-pyridyl)]ethyl}amino)pyrimidin-5-yl]benzamide]", "values": [{"measurement": "Mean AC1.4", "result": "D (D=>20 uM)"}]}
{"smiles": "CC(C)(Nc1ncc(-c2cccc(C(N)=O)c2)cn1)c1ccc(S(C)(=O)=O)cc1", "note": "[3-[2-({1-methyl-1-[4-(methylsulfonyl)phenyl]ethyl}amino)pyrimidin-5-yl)benzamide]", "values": [{"measurement": "Mean AC1.4", "result": "D (D=>20 uM)"}]}
{"smiles": "CC(C)(Nc1ncc(-c2cc(C#N)ccc2F)cn1)c1ncccc1C(F)F", "note": "[3-[2-({1[3-(difluoromethyl)(2-pyridyl)]-isopropyl}amino)pyrimidin-5-yl]-4-fluorobenzenecarbonitrile]", "values": [{"measurement": "Mean AC1.4", "result": "B (B=1-10 uM)"}]}
{"smiles": "NC(=O)c1ccc(F)c(-c2cnc(NCC3(c4ncccc4Cl)CC(F)(F)C3)nc2)c1", "note": "[3-[2-({[1-(3-chloro(2-pyridyl))-3,3-difluorocyclobutyl]methyl}amino)pyrimidin-5-yl]-4-fluorobenzamide]", "values": [{"measurement": "Mean AC1.4", "result": "A (A=<1 uM)"}]}
{"smiles": "NC(=O)c1cccc(-c2cnc(NC[C@]3(c4ncccc4F)C[C@H](F)C3)nc2)c1O", "note": "[3-[2-({[3-fluoro-1-(3-fluoro(2-pyridyl))cyclobutyl]methyl)amino)pyrimidin-5-yl]-2-hydroxybenzamide]", "values": [{"measurement": "Mean AC1.4", "result": "A (A=<1 uM)"}]}
{"smiles": "O=C(O)c1cccc(-c2cnc(NC[C@]3(c4ncccc4F)C[C@H](F)C3)nc2O)c1", "note": "[3-[2-({[3-fluoro-1-(3-fluoro(2-pyridyl))cyclobutyl]methyl}amino)-4-hydroxypyrimidin-5-yl] benzoic acid]", "values": [{"measurement": "Mean AC1.4", "result": "D (D=>20 uM)"}]}
{"smiles": "NC(=O)c1cccc(-c2cnc(NC[C@]3(c4ncccc4F)C[C@H](F)C3)nc2O)c1", "note": "[3-[2-({[3-fluoro-1-(3-fluoro(2-pyridyl))cyclobutyl]methyl}amino)-4-hydroxypyrimidin-5-yl]benzamide]", "values": [{"measurement": "Mean AC1.4", "result": "B (B=1-10 uM)"}]}
{"smiles": "COc1nc(NC[C@]2(c3ncccc3F)C[C@H](F)C2)ncc1-c1cccc(C(N)=O)c1", "note": "[3-[2-({[3-fluoro-1-(3-fluoro(2-pyridyl))cyclobutyl]methyl}amino)-4-methoxypyrimidin-5-yl]benzamide]", "values": [{"measurement": "Mean AC1.4", "result": "A (A=<1 uM)"}]}
{"smiles": "Cc1nc(NC[C@]2(c3ncccc3F)C[C@H](F)C2)ncc1-c1cccc(C(N)=O)c1", "note": "[3-[2-({[3-fluoro-1-(3-fluoro(2-pyridyl))cyclobutyl]methyl}amino)-4-methylpyrimidin-5-yl]benzamide]", "values": [{"measurement": "Mean AC1.4", "result": "B (B=1-10 uM)"}]}
{"smiles": "NC(=O)c1ccc(O)c(-c2cnc(NC[C@]3(c4ncccc4F)C[C@H](F)C3)nc2)c1", "note": "[3-[2-({[3-fluoro-1-(3-fluoro(2-pyridyl))cyclobutyl]methyl}amino)pyrimidin-5-yl]-4-hydroxybenzamide]", "values": [{"measurement": "Mean AC1.4", "result": "A (A=<1 uM)"}]}
{"smiles": "O=C(O)c1ccc(O)c(-c2cnc(NC[C@]3(c4ncccc4F)C[C@H](F)C3)nc2)c1", "note": "[3-[2-({[3-fluoro-1-(3-fluoro(2-pyridyl))cyclobutyl]methyl}amino)pyrimidin-5-yl]-4-hydroxybenzoic acid]", "values": [{"measurement": "Mean AC1.4", "result": "A (A=<1 uM)"}]}
{"smiles": "NC(=O)c1cccc(-c2cnc(NCC3(c4ncccc4F)CC(F)C3)nc2)c1", "note": "(stereo not drawn) [3-[2-({[3-fluoro-1-(3-fluoro(2-pyridyl))cyclobutyl]methyl}amino)pyrimidin-5-yl]benzamide]", "values": [{"measurement": "Mean AC1.4", "result": "A (A=<1 uM)"}]}
{"smiles": "Oc1ncccc1-c1cnc(NC[C@]2(c3ncccc3F)C[C@H](F)C2)nc1", "note": "[3-[2-({[3-fluoro-1-(3-fluoro(2-pyridyl))cyclobutyl]methyl}amino)pyrimidin-5-yl]pyridin-2-ol]", "values": [{"measurement": "Mean AC1.4", "result": "C (C=10-20 uM)"}]}
{"smiles": "Cc1ccc(F)c([C@]2(CNc3ncc(-c4cccc(C(N)=O)c4)cn3)C[C@@H](F)C2)n1", "note": "[3-[2-({[3-fluoro-1-(3-fluoro-6-methyl(2-pyridyl))cyclobutyl]methyl}amino)pyrimidin-5-yl]benzamide]", "values": [{"measurement": "Mean AC1.4", "result": "A (A=<1 uM)"}]}
{"smiles": "NC(=O)c1ccc(F)c(-c2cnc(NCC3(c4ncccc4Cl)CCC3)nc2)c1", "note": "[3-[2-({[(3-chloro(2-pyridyl))cyclobutyl]methyl}amino)pyrimidin-5-yl]-4-fluorobenzamide]", "values": [{"measurement": "Mean AC1.4", "result": "A (A=<1 uM)"}]}
{"smiles": "N#Cc1ccc(F)c(-c2cnc(NCC3(c4ncccc4Cl)CCC3)nc2)c1", "note": "[3-[2-({[(3-chloro(2-pyridyl))cyclobutyl]methyl}amino)pyrimidin-5-yl]-4-fluorobenzenecarbonitrile]", "values": [{"measurement": "Mean AC1.4", "result": "A (A=<1 uM)"}]}
{"smiles": "NC(=O)c1cccc(-c2cnc(NCC3(c4ncccc4Cl)CCC3)nc2)c1", "note": "[3-[2-({[(3-chloro-2-pyridyl)cyclobutyl]methyl}amino)pyrimidin-5-yl]benzamide]", "values": [{"measurement": "Mean AC1.4", "result": "A (A=<1 uM)"}]}
{"smiles": "N#Cc1cccc(-c2cnc(NCC3(c4ncccc4Cl)CCC3)nc2)c1", "note": "[3-[2-({[(3-chloro-2-pyridyl)cyclobutyl]methyl}amino)pyrimidin-5-yl]benzenecarbonitrile]", "values": [{"measurement": "Mean AC1.4", "result": "A (A=<1 uM)"}]}
{"smiles": "NC(=O)c1ccc(O)c(-c2cnc(NCC3(c4ncccc4F)CCC3)nc2)c1", "note": "[3-[2-({[(3-fluoro(2-pyridyl))cyclobutyl]methyl}amino)pyrimidin-5-yl]-4-hydroxybenzamide]", "values": [{"measurement": "Mean AC1.4", "result": "A (A=<1 uM)"}]}
{"smiles": "NC(=O)c1cccc(-c2cnc(NCC3(c4ncccc4F)CCC3)nc2)c1", "note": "[3-[2-({[(3-fluoro-2-pyridyl)cyclobutyl]methyl}amino)pyrimidin-5-yl]benzamide]", "values": [{"measurement": "Mean AC1.4", "result": "A (A=<1 uM)"}]}
{"smiles": "CC(C)(C)OC(=O)NCCC(=O)NCc1cnn(-c2cnc(NC(C)(C)c3ncccc3Cl)nc2)c1", "note": "[3-[(tert-butoxy)carbonylamino]-N-{[1-(2-{[1-(3-chloro(2-pyridyl))-isopropyl]amino}pyrimidin-5-yl)pyrazol-4-yl)]methyl}propanamide]", "values": [{"measurement": "Mean AC1.4", "result": "D (D=>20 uM)"}]}
{"smiles": "Nc1ncc(-c2cnc(NC[C@]3(c4ncccc4F)C[C@H](F)C3)nc2)[nH]c1=O", "note": "[3-amino-6-[2-({[3-fluoro-1-(3-fluoro(2-pyridyl))cyclobutyl]methyl}amino)pyrimidin-5-yl] hydropyrazin-2-one]", "values": [{"measurement": "Mean AC1.4", "result": "B (B=1-10 uM)"}]}
{"smiles": "CC(C)(Nc1ncc(-n2cc(CNC(=O)CCN)cn2)cn1)c1ncccc1Cl", "note": "[3-amino-N-{[1-(2-{[1-(3-chloro(2-pyridyl))-isopropyl]amino}pyrimidin-5-yl)pyrazol-4-yl]methyl}propanamide]", "values": [{"measurement": "Mean AC1.4", "result": "B (B=1-10 uM)"}]}
{"smiles": "CC(C)(C)Nc1ncc(-c2cccc(C(N)=O)c2)cn1", "note": "[3-{2-[(tert-butyl)amino]pyrimidin-5-yl} benzamide]", "values": [{"measurement": "Mean AC1.4", "result": "D (D=>20 uM)"}]}
{"smiles": "CC(C)(Nc1ncc(-c2csc(C(N)=O)n2)cn1)c1ncccc1Cl", "note": "[4-(2-{[1-(3-chloro(2-pyridyl))-isopropyl]amino}pyrimidin-5-yl)-1,3-thiazole-2-carboxamide]", "values": [{"measurement": "Mean AC1.4", "result": "C (C=10-20 uM)"}]}
{"smiles": "CC(C)(Nc1ncc(-c2ccnc(C(N)=O)c2)cn1)c1ncccc1Cl", "note": "[4-(2-{[1-(3-chloro(2-pyridyl))-isopropyl]amino}pyrimidin-5-yl)pyridine-2-carboxamide]", "values": [{"measurement": "Mean AC1.4", "result": "B (B=1-10 uM)"}]}
{"smiles": "CC(C)(Nc1ncc(-c2csc(C(N)=O)c2)cn1)c1ncccc1Cl", "note": "[4-(2-{[1-(3-chloro(2-pyridyl))-isopropyl]amino}pyrimidin-5-yl)thiophene-2-carboxamide]", "values": [{"measurement": "Mean AC1.4", "result": "B (B=1-10 uM)"}]}
{"smiles": "CC(C)(CNc1ncc(-c2ccc(C(N)=O)cc2)cn1)c1ccc(F)cc1", "note": "[4-(2-{[2-(4-fluorophenyl)-2-methylpropyl]amino}pyrimidin-5-yl)benzamide]", "values": [{"measurement": "Mean AC1.4", "result": "B (B=1-10 uM)"}]}
{"smiles": "N#Cc1cc(-c2cnc(NC3(c4ncccc4F)CCC3)nc2)ccn1", "note": "[4-(2-{[(3-fluoro-2-pyridyl)cyclobutyl]amino}pyrimidin-5-yl)pyridine-2-carbonitrile]", "values": [{"measurement": "Mean AC1.4", "result": "D (D=>20 uM)"}]}
{"smiles": "NC(=O)c1cc(-c2cnc(NC3(c4ncccc4F)CCC3)nc2)ccn1", "note": "[4-(2-{[(3-fluoro-2-pyridyl)cyclobutyl]amino}pyrimidin-5-yl)pyridine-2-carboxamide]", "values": [{"measurement": "Mean AC1.4", "result": "B (B=1-10 uM)"}]}
{"smiles": "N#Cc1cc(-c2cnc(NC3(c4ccc(F)cc4)CCC3)nc2)ccn1", "note": "[4-(2-{[(4-fluorophenyl)cyclobutyl]amino}pyrimidin-5-yl)pyridine-2-carbonitrile]", "values": [{"measurement": "Mean AC1.4", "result": "C (C=10-20 uM)"}]}
{"smiles": "NC(=O)c1cc(-c2cnc(NC3(c4ccc(F)cc4)CCC3)nc2)ccn1", "note": "[4-(2-{[(4-fluorophenyl)cyclobutyl]amino}pyrimidin-5-yl)pyridine-2-carboxamide]", "values": [{"measurement": "Mean AC1.4", "result": "B (B=1-10 uM)"}]}
{"smiles": "Cc1nc(NC[C@]2(c3ncccc3F)C[C@H](F)C2)ncc1-c1ccc(C(N)=O)cc1", "note": "[4-[2-({[3-fluoro-1-(3-fluoro(2-pyridyl))cyclobutyl]methyl}amino)-4-methylpyrimidin-5-yl]benzamide]", "values": [{"measurement": "Mean AC1.4", "result": "D (D=>20 uM)"}]}
{"smiles": "Cc1nc(NC[C@]2(c3ncccc3F)C[C@H](F)C2)ncc1-c1ccc(C#N)cc1", "note": "[4-[2-({[3-fluoro-1-(3-fluoro(2-pyridyl))cyclobutyl]methyl}amino)-4-methylpyrimidin-5-yl]benzenecarbonitrile]", "values": [{"measurement": "Mean AC1.4", "result": "D (D=>20 uM)"}]}
{"smiles": "NC(=O)c1cc(-c2cnc(NCC3(c4ncccc4F)CCC3)nc2)ccn1", "note": "[4-[2-({[(3-fluoro-2-pyridyl)cyclobutyl]methyl}amino)pyrimidin-5-yl]pyridine-2-carboxamide]", "values": [{"measurement": "Mean AC1.4", "result": "B (B=1-10 uM)"}]}
